The values below are quoted from earlier work in US20200171025A1, “PHARMACEUTICAL COMPOSITION COMPRISING BREXPIPRAZOLE AND PROCESS FOR PREPARATION THEREOF” (priority 2018, published 2020).

The conditions of this series: as per BCS.

As for `O=c1ccc2ccc(OCCCCN3CCN(c4cccc5sccc45)CC3)cc2[nH]1` [Brexpiprazole, 7-{4-[4-(1-Benzothiophen-4-yl)piperazin-1-yl]butoxy}quinolin-2(1H)-one], the Aqueous solubility entry was “low aqueous solubility” and the Permeability entry was “high permeability”.
